Measured values: ChEMBL document CHEMBL1201862, “PubChem BioAssay data set” (2004)
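Grown in 96-well plates, cells were treated for 48 hours with each compound at five concentrations. Insufficient inhibition: endpoint recorded as highest concentration tested. GI50 marks 50% less growth.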 Active and inactive are the calls of the source. No stated cut-off is given here; in the data, active = GI50 up to about 1.1 µM and inactive = higher.

Experiments:
Experiment in all cases: NCI-60 cell line screen, 48 h
KM-20L2 = system: KM-20L2
DMS-273 = system: DMS-273
DLD-1 = system: DLD-1
DMS-114 = system: DMS-114
LXFL 529 = system: LXFL 529
HOP-18 = system: HOP-18
SNB-78 = system: SNB-78
RXF 631 = system: RXF 631
XF498 = system: XF498

Measured: GI50

O=C1C2C3CC4C5C3C1C5C1(SCCS1)C42 (configuration not stated)
inactive: KM-20L2 > 100 µM | DMS-273 > 100 µM | DLD-1 > 100 µM | DMS-114 > 100 µM | LXFL 529 > 100 µM | HOP-18 > 100 µM | SNB-78 > 100 µM

CCCCNC(=O)NNC(=O)c1cc(/C=C/c2cccc([N+](=O)[O-])c2)ncn1
inactive: KM-20L2 > 100 µM | DMS-273 > 100 µM | DLD-1 37.7 µM | DMS-114 51.3 µM | LXFL 529 > 10 µM | RXF 631 > 100 µM | XF498 > 100 µM | HOP-18 > 100 µM | SNB-78 > 100 µM

O=C(Nc1ccc(C(F)(F)F)cc1[N+](=O)[O-])C(=O)C(C(=O)c1ccc2ccccc2c1)C1OC(=O)c2ccccc21 (configuration not stated)
inactive: KM-20L2 20.6 µM | DLD-1 6.9 µM | DMS-114 8.71 µM | LXFL 529 5.18 µM | SNB-78 10.1 µM

COc1cc2ccc3c4cc(OC)c(OC)cc4c[n+](C)c3c2cc1O
inactive: KM-20L2 > 100 µM | DMS-273 55.5 µM | DLD-1 > 100 µM | DMS-114 8.99 µM | LXFL 529 12.6 µM | XF498 24.7 µM | HOP-18 > 100 µM | SNB-78 > 100 µM

CCN(CC)CCNC(=O)c1ccccc1NC(=O)C(=O)Nc1ccccc1C(=O)NCCN(CC)CC
inactive: KM-20L2 37.7 µM | DMS-273 > 100 µM | DLD-1 63.4 µM | DMS-114 32.2 µM | RXF 631 > 100 µM | HOP-18 > 100 µM | SNB-78 > 100 µM

CCN(CC)CCn1c2c3ccccc3ccc2c2oc(=O)c3ccccc3c21
inactive: KM-20L2 > 100 µM | DLD-1 > 100 µM | DMS-114 > 100 µM | LXFL 529 > 100 µM | RXF 631 > 100 µM | XF498 > 100 µM | HOP-18 > 100 µM | SNB-78 > 100 µM

O=C(N/N=C/c1cccc(O)c1O)N/N=C/c1cccc(O)c1O
inactive: KM-20L2 29.3 µM | DMS-273 22.9 µM | DMS-114 > 100 µM | LXFL 529 16.7 µM | XF498 19.1 µM | HOP-18 19.2 µM | SNB-78 34.8 µM

COc1ccc(N2C(=O)[C@H]3CC(C)c4c([nH]c5ccccc45)[C@H]3C2=O)cc1 (some centres not stated)
inactive: KM-20L2 2.99 µM | DMS-273 1.51 µM | DLD-1 3.54 µM | DMS-114 2.01 µM | LXFL 529 4.14 µM | XF498 4.76 µM | SNB-78 5.08 µM

O=c1cc(-c2ccccc2)c2cc3c(=O)ccoc3cc2o1
inactive: KM-20L2 > 100 µM | DMS-273 > 100 µM | DLD-1 77.4 µM | DMS-114 83 µM | XF498 > 100 µM

CCOC(=O)C(=O)Nc1cccc(Cl)c1C
inactive: DLD-1 > 100 µM | DMS-114 > 100 µM | LXFL 529 > 100 µM | RXF 631 > 100 µM | XF498 49.8 µM | HOP-18 > 100 µM | SNB-78 > 100 µM

CN(C)CC/C(=N\Nc1ccccc1)c1ccccc1
inactive: DLD-1 69.2 µM | DMS-114 15.6 µM | XF498 3.89 µM | HOP-18 31 µM | SNB-78 11.8 µM

COS(=O)(=O)OCCC(NC(=O)OCc1ccccc1)C(=O)OCc1ccccc1 (configuration not stated)
inactive: KM-20L2 > 100 µM | DMS-273 > 100 µM | DLD-1 > 100 µM | DMS-114 > 100 µM | LXFL 529 > 100 µM | HOP-18 > 100 µM | SNB-78 > 100 µM

Cc1ccccc1C(=O)Oc1ccc(O)cc1
inactive: KM-20L2 > 100 µM | DMS-273 > 100 µM | DLD-1 > 100 µM | RXF 631 > 100 µM | HOP-18 > 100 µM | SNB-78 > 100 µM

CCCCN(CC)C(=O)C(=O)C1C(=O)Nc2ccccc2[S+]1[O-] (configuration not stated)
inactive: KM-20L2 > 100 µM | DMS-273 > 100 µM | DLD-1 > 100 µM | DMS-114 > 100 µM | LXFL 529 > 100 µM | HOP-18 > 100 µM | SNB-78 > 100 µM

N#CCCN(c1ccc(C=O)cc1)S(=O)(=O)c1ccccc1
inactive: KM-20L2 > 100 µM | DMS-273 > 100 µM | DMS-114 > 100 µM | LXFL 529 > 100 µM | XF498 > 100 µM

CCOC(=O)C(C(=O)c1ccccc1)=C1NCCN1
inactive: KM-20L2 > 100 µM | DLD-1 > 100 µM | LXFL 529 > 100 µM | RXF 631 > 100 µM | XF498 > 100 µM | HOP-18 4.06 µM

Cn1c(=O)nc2n(-c3ccc(Cl)cc3)c3ccc(Cl)cc3nc-2c1=O
inactive: KM-20L2 4.88 µM | SNB-78 14.8 µM

COc1ccc(C2Cc3cc(OC)c(OC)c(OC)c3C2=O)cc1 (configuration not stated)
inactive: KM-20L2 > 100 µM | DMS-273 > 100 µM | DLD-1 > 100 µM | DMS-114 76.6 µM | XF498 2 µM | HOP-18 > 100 µM | SNB-78 > 100 µM

CC(C)(C)C1CCC(=O)C(C(O)CC2CC(=O)N(c3ccccc3)C(=O)C2)C1 (configuration not stated)
inactive: KM-20L2 > 100 µM | DMS-273 > 100 µM | DLD-1 > 100 µM | DMS-114 > 100 µM | LXFL 529 > 100 µM | RXF 631 56.8 µM | XF498 > 100 µM | HOP-18 > 100 µM | SNB-78 > 100 µM

COc1cc(-c2ccc(NC(=O)SCCC(=O)O)cc2OC)ccc1NC(=O)SCCC(=O)O
inactive: KM-20L2 > 100 µM | DMS-273 > 100 µM | DMS-114 > 100 µM | LXFL 529 > 100 µM | XF498 74.3 µM | SNB-78 > 100 µM

CCN1N=CSC12C(=O)N(c1ccccc1)C(=O)N2c1ccccc1 (configuration not stated)
inactive: KM-20L2 > 100 µM | DLD-1 > 100 µM | DMS-114 57.8 µM | LXFL 529 > 100 µM | RXF 631 > 100 µM | XF498 32.7 µM | HOP-18 > 100 µM | SNB-78 > 100 µM

CC1=COC(=O)c2ccccc2N1
inactive: KM-20L2 > 100 µM | DMS-273 > 100 µM | DLD-1 > 100 µM | DMS-114 > 100 µM | LXFL 529 > 100 µM | SNB-78 > 100 µM

COc1ccc(/C(=N\NC(=O)C(=O)NN)C(c2ccc(OC)cc2)C2(O)C(=O)Nc3ccccc32)cc1 (configuration not stated)
inactive: KM-20L2 > 100 µM | DMS-273 > 100 µM | DLD-1 51.4 µM | DMS-114 64.3 µM | LXFL 529 29 µM | RXF 631 > 100 µM | XF498 29.6 µM | SNB-78 > 100 µM

Cc1cc(O)nc(CNC(=O)Cc2ccccc2)n1
inactive: KM-20L2 > 100 µM | DMS-273 > 100 µM | DLD-1 > 100 µM | DMS-114 > 100 µM | LXFL 529 > 100 µM | XF498 > 100 µM | SNB-78 > 100 µM

FC(F)(F)c1ccc(/C=N/C23CC4CC(CC(C4)C2)C3)cc1
inactive: KM-20L2 > 100 µM | DMS-273 > 100 µM | DMS-114 > 100 µM | SNB-78 > 100 µM

COC(=O)/C(=N\NC(N)=O)C(C(=O)C(=O)Nc1ccccc1C(=O)OC)c1nc2ccc(C(=O)c3ccccc3)cc2nc1O (configuration not stated)
inactive: KM-20L2 > 100 µM | DMS-273 > 100 µM | DLD-1 > 100 µM | DMS-114 > 100 µM | LXFL 529 > 100 µM | RXF 631 > 100 µM | XF498 > 100 µM | HOP-18 > 100 µM | SNB-78 > 100 µM
